This passage reports IC50 and inhibition results from US8134015B2, “Compound inhibiting in vivo phosphorous transport and medicine containing the same” (Kyowa Hakko Kirin Co., Ltd., priority 2003, dated 2012).

A value given as a limit tells only on which side of the number the result lay.

In one assay the target is T1, rat NaPi-2b (Rattus norvegicus, UniProt Q9JJ09).
T1 construct: expressed in transfected cells; host or cells: Xenopus oocytes injected with cRNA
T1 sequence (Q9JJ09 1-695): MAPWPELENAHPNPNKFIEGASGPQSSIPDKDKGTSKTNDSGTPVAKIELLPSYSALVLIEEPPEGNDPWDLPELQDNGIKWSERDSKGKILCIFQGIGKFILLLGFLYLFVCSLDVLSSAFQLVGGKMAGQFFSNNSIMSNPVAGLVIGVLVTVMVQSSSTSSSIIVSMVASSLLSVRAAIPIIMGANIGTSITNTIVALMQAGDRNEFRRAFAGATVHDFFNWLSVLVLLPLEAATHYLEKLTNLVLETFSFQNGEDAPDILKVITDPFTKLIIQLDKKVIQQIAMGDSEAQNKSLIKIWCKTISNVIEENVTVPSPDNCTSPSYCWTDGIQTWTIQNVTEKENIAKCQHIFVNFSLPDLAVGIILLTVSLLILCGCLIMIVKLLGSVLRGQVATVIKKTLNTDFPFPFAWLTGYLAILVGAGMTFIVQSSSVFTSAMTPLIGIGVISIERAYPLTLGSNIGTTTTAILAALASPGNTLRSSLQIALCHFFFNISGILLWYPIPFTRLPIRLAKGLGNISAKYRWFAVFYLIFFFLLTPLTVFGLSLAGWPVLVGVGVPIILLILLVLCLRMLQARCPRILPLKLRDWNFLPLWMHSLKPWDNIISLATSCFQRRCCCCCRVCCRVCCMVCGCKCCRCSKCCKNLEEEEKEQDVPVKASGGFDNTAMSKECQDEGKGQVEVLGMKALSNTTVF
Kind of assay: Sodium-dependent phosphate uptake of Xenopus oocytes which expressed NaPi-2b (32P). It is filed as cell-based. Conditions: Xenopus oocytes expressing rat NaPi-2b, 32P radioactive phosphorus; read-out: IC50 (phosphate uptake inhibitory activity). In outline: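 Rat NaPi-2b cloned from small-intestine cDNA; cRNA injected into Xenopus oocytes, expression for 2 days. Phosphate uptake inhibition measured with 32P; percent inhibition at 300 μM and 100 μM read from the same inhibition curve.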
The IC50 is the concentration at which inhibition is half-maximal. Turning to `O=C(Nc1ccccc1C(=O)N/N=C/c1cccc(F)c1)c1ccc(F)cc1` [Compound 76, 4-Fluoro-N-[2-(3-fluoro-benzylidene-hydrazinocarbonyl)-phenyl]-benzamide], the IC50 came to 13.2 µM.

As to `O=C(Nc1ccc(OCCCN2CCCCC2)cc1C(=O)N/N=C/c1ccc(Cl)c(C(F)(F)F)c1)c1cccc(CSCCO)c1` [Compound 1039, N-[2-(4-Chloro-3-trifluoromethyl-benzylidene-hydrazinocarbonyl)-4-(3-piperidin-1-yl-propoxy)-phenyl]-3-(2-hydroxy-ethylsulfanylmethyl)-benzamide], the IC50 turned out to be 2.76 µM.

Regarding `O=C(Nc1ccc(Br)cc1C(=O)N/N=C/c1ccc(Cl)c(C(F)(F)F)c1)c1ccc(CN2CCC(O)CC2)cc1` [Compound 329, N-[4-Bromo-2-(4-chloro-3-trifluoromethyl-benzylidene-hydrazinocarbonyl)-phenyl]-4-(4-hydroxy-piperidin-1-ylmethyl)-benzamide], the IC50 came out at 5.63 µM.

Take `CCN(CC)CCN(C)Cc1cccc(C(=O)Nc2ccc(OCCOC)cc2C(=O)N/N=C/c2ccc(C)cc2)c1` [Compound 1026, 3-{[(2-Diethylamino-ethyl)-methyl-amino]-methyl}-N-[4-(2-methoxy-ethoxy)-2-(4-methyl-benzylidene-hydrazinocarbonyl)-phenyl]-benzamide]: the IC50 is 3.86 µM.

In the case of `Cc1ccc(/C=N/NC(=O)c2cc(Br)ccc2NC(=O)c2cccc(CSc3nc[nH]n3)c2)cc1C` [Compound 267, N-[4-Bromo-2-(3,4-dimethyl-benzylidene-hydrazinocarbonyl)-phenyl]-3-(1H-[1,2,4]triazol-3-ylsulfanylmethyl)-benzamide], the IC50 was 0.43 µM.

Consider `Cc1cc(/C=N/NC(=O)c2cc(Cl)ccc2NC(=O)c2cccnc2)oc1C` [Compound 222, N-[4-Chloro-2-(4,5-dimethyl-furan-2-ylmethylene-hydrazinocarbonyl)-phenyl]-nicotinamide], for which the IC50 was 8.86 µM.

Regarding `CN(CCCN(C)Cc1cccc(C(=O)Nc2ccc(Cl)cc2C(=O)N/N=C/c2cccc(F)c2)c1)Cc1cccc(C(=O)Nc2ccc(Cl)cc2C(=O)N/N=C/c2cccc(F)c2)c1` [Compound 685, N1-[4-Chloro-2-({2-[(E)-1-(3-fluorophenyl)methylidene]hydrazino}carbonyl}phenyl}-3-{[{3-[(3-{[4-chloro-2-({2-[(E)-1-(3-fluorophenyl)methylidene]hydrazino}carbonyl}-anilino}carbonyl}benzyl}(methyl)amino)propyl)(methyl)amino]methyl]-benzamide], the IC50 is 36.4 µM.

With `CCN(CC)CCN(Cc1cccc(C(=O)Nc2sc3c(c2C(=O)N/N=C/c2ccc(OC)cc2)CCCC3)c1)C(C)=O` [Compound 657, 3-{[Acetyl-(2-diethylamino-ethyl)-amino]-methyl}-N-[3-(4-methoxy-benzylidene-hydrazinocarbonyl)-4,5,6,7-tetrahydro-benzo[b]thiophen-2-yl]-benzamide], the IC50 is 2.63 µM.

Take `CCN(CC)CCN(C)Cc1cccc(C(=O)Nc2sccc2C(=O)N/N=C/c2ccc(OC)cc2)c1` [Compound 669, 3-{[(2-Diethylamino-ethyl)-methyl-amino]-methyl}-N-[3-(4-methoxy-benzylidene-hydrazinocarbonyl)-thiophen-2-yl]-benzamide]: the IC50 came to 15.3 µM.

For the compound `O=C(Nc1ccccc1C(=O)N/N=C/c1cccnc1)c1ccc(F)cc1` [Compound 113, 4-Fluoro-N-[2-(pyridin-3-ylmethylene-hydrazinocarbonyl)-phenyl]-benzamide], the IC50 was 17.9 µM.

In the case of `Cc1csc(NC(=O)c2cccc(CN(CC(C)O)CC(C)O)c2)c1C(=O)N/N=C/c1ccc(F)cc1` (centres unmarked) [Compound 589, 3-{[Bis-(2-hydroxy-propyl)-amino]-methyl}-N-[3-(4-fluoro-benzylidene-hydrazinocarbonyl)-4-methyl-thiophen-2-yl]-benzamide], the IC50 was below 3 µM.

For the compound `O=C(Nc1ccc(Br)cc1C(=O)N/N=C/c1ccc(Cl)c(C(F)(F)F)c1)c1ccc(CN2CCC(CO)CC2)cc1` [Compound 337, N-[4-Bromo-2-(4-chloro-3-trifluoromethyl-benzylidene-hydrazinocarbonyl)-phenyl]-4-(4-hydroxymethyl-piperidin-1-ylmethyl)-benzamide], the IC50 worked out at 1.39 µM.

As for `COc1ccc(C(=O)Nc2ccc(N3CCOCC3)cc2C(=O)N/N=C/c2ccc(C)c(C)c2)cc1OC` [Compound 939, N-[2-(3,4-Dimethyl-benzylidene-hydrazinocarbonyl)-4-morpholin-4-yl-phenyl]-3,4-dimethoxy-benzamide], the IC50 is below 3 µM.

On to `COc1ccc(/C=N/NC(=O)c2cc(Br)ccc2NC(=O)c2ccc(CN3CCC(N4CCCCC4)CC3)cc2)cc1` [Compound 314, 4-[1,4′]Bipiperidinyl-1′-ylmethyl-N-[4-bromo-2-(4-methoxy-benzylidene-hydrazinocarbonyl)-phenyl]-benzamide], for which the IC50 was 3.39 µM.

For `CCN1CC(NCc2ccc(C(=O)Nc3ccc(Br)cc3C(=O)N/N=C/c3cccc(F)c3)cc2)CN1CC` [Compound 752, N-[4-Bromo-2-(3-fluoro-benzylidene-hydrazinocarbonyl)-phenyl]-4-[(1,2-diethyl-pyrazolidin-4-ylamino)-methyl]-benzamide], the IC50 is below 3 µM.

As for `COc1cc(OC)cc(C(=O)Nc2ccccc2C(=O)N/N=C/c2ccc(Cl)c(C(F)(F)F)c2)c1` [Compound 89, N-[2-(4-Chloro-3-trifluoromethyl-benzylidene-hydrazinocarbonyl)-phenyl]-3,5-dimethoxy-benzamide], the IC50 is 1.11 µM.

For `O=C(Nc1ccc(Br)cc1C(=O)N/N=C/c1ccc(Cl)c(C(F)(F)F)c1)c1ccncc1` [Compound 171, N-[4-Bromo-2-(4-chloro-3-trifluoromethyl-benzylidene-hydrazinocarbonyl)-phenyl]-isonicotinamide], the IC50 was 5.12 µM.

For the compound `COc1ccc(C(=O)Nc2ccccc2C(=O)N/N=C/c2ccc(C)o2)cc1OC` [Compound 22, 3,4-Dimethoxy-N-[2-(5-methyl-furan-2-ylmethylene-hydrazinocarbonyl)-phenyl]-benzamide], the IC50 is 26.7 µM.

Take `CC(O)CN(Cc1cccc(C(=O)Nc2ccc(N3CCCCC3)cc2C(=O)NN=Cc2ccc(Cl)c(C(F)(F)F)c2)c1)CC(C)O` (centres unmarked) [Compound 942, 3-{[Bis-(2-hydroxy-propyl)-amino]-methyl}-N-[2-(4-chloro-3-trifluoromethyl-benzylidene-hydrazinocarbonyl)-4-piperidin-1-yl-phenyl]-benzamide]: the IC50 came to 0.2 µM.

For the compound `Cc1ccc(/C=N/NC(=O)c2cc(Br)ccc2NC(=O)c2ccc(CN(CC(C)O)CC(C)O)cc2)cc1` (centres unmarked) [Compound 304, 4-{[Bis-(2-hydroxy-propyl)-amino]-methyl}-N-[4-bromo-2-(4-methyl-benzylidene-hydrazinocarbonyl)-phenyl]-benzamide], the IC50 turned out to be 1.23 µM.

The same assay, now with this note: phosphate uptake, oocytes expressing rat NaPi-2b; 300 μM, determined from inhibition curve.
By inhibition is commonly meant the change of the read-out against control, counted positive when it falls. A higher inhibition goes with a strong effect. Take `CCN(CC)CCN(C)Cc1cccc(C(=O)Nc2ccc(N3CCCN(C)CC3)cc2C(=O)N/N=C/c2ccc(OC)cc2)c1` [Compound 931, 3-{[(2-Diethylamino-ethyl)-methyl-amino]-methyl}-N-[2-(4-methoxy-benzylidene-hydrazinocarbonyl)-4-(4-methyl-[1,4]diazepan-1-yl)-phenyl]-benzamide]: testing at 300 µM gave an inhibition of 31.2%.

In turn, `Cc1csc(C(=O)N/N=C/c2cccc(F)c2)c1NC(=O)c1cccc(CN2CCN(CCO)CC2)c1` [Compound 535, N-[2-(3-Fluoro-benzylidene-hydrazinocarbonyl)-4-methyl-thiophen-3-yl]-3-[4-(2-hydroxy-ethyl)-piperazin-1-ylmethyl]-benzamide] registered an inhibition at 300 µM of 53%.

In turn, `Cc1cccc(/C=N/NC(=O)c2ccccc2NC(=O)c2ccccc2F)c1` [Compound 238, 2-Fluoro-N-[2-(3-methyl-benzylidene-hydrazinocarbonyl)-phenyl]-benzamide] gave an inhibition at 300 µM of 30.6%.

Take `C/C(=N\NC(=O)c1cc(Cl)ccc1NC(=O)c1cccnc1)c1cccc(C)c1` [Compound 250, N-[4-Chloro-2-(1-m-toluyl-ethylidene-hydrazinocarbonyl)-phenyl]-nicotinamide]: the inhibition at 300 µM stood at 37.9%.

Regarding `COc1ccc(/C=N/NC(=O)c2cscc2NC(=O)c2cccc(CN(CC(C)O)CC(C)O)c2)cc1` (centres unmarked) [Compound 979, 3-{[Bis-(2-hydroxy-propyl)-amino]-methyl}-N-[4-(4-methoxy-benzylidene-hydrazinocarbonyl)-thiophen-3-yl]-benzamide], at 300 µM the inhibition was 73.7%.

The compound `CCN(CC)CC(O)COc1ccc(NC(=O)c2cccc(CN(CC(C)O)CC(C)O)c2)c(C(=O)N/N=C/c2ccc(C)c(C)c2)c1` (centres unmarked) [Compound 951, 3-{[Bis-(2-hydroxy-propyl)-amino]-methyl}-N-[4-(3-diethylamino-2-hydroxy-propoxy)-2-(3,4-dimethyl-benzylidene-hydrazinocarbonyl)-phenyl]-benzamide] came in with an inhibition at 300 µM of 68.5%.
